Reference: patent US10689398B2, “OXA-Diazaspiro compounds having activity against pain” (ESTEVE PHARMACEUTICALS, S.A., priority 2015, dated 2020)

Molecular target: human σ1 receptor (Homo sapiens (Human), UniProt Q99720)
Experiment: Human σ1 receptor radioligand assay
Format: binding
Conditions: transfected HEK-293 membranes, [3H](+)-pentazocine radioligand
Procedure: Human σ1 Receptor Radioligand Assay
To investigate binding properties of test compounds to human σ1 receptor, transfected HEK-293 membranes and [^3H](+)-pentazocine (Perkin Elmer, NET-1056), as the radioligand, were used. The assay was carried out with 7 μg of membrane suspension, 5 nM of [^3H](+)-pentazocine in either absence or presence of either buffer or 10 μM Haloperidol for total and non-specific binding, respectively. Binding buffer contained Tris-HCl 50 mM at pH 8. Plates were incubated at 37° C. for 120 minutes. After the incubation period, the reaction mix was then transferred to MultiScreen HTS, FC plates (Millipore), filtered and plates were washed 3 times with ice-cold 10 mM Tris-HCL (pH7.4). Filters were dried and counted at approximately 40% efficiency in a MicroBeta scintillation counter (Perkin-Elmer) using EcoScint liquid scintillation cocktail

Chain of human σ1 receptor (Q99720 whole entry): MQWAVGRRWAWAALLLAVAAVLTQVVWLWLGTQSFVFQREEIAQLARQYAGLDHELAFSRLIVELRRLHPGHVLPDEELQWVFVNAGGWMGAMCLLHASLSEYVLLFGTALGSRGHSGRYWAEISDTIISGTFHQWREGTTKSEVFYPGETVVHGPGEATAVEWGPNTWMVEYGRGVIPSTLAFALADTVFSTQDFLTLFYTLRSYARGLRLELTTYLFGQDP

SMILES	Ki
CCN1C[C@@]2(CCCN(Cc3ccc(C#N)cc3)CC2)O[C@@H](C)C1=O [Example 69, 4-(((2S,6S)-4-ethyl-2-methyl-3-oxo-1-oxa-4,9-diazaspiro[5.6]dodecan-9-yl)methyl)benzonitrile]	≥ 500 nM
CCN1C[C@]2(CCCN(Cc3ccc(C#N)cc3)CC2)O[C@@H](C)C1=O [Example 70, 4-(((2S,6R)-4-ethyl-2-methyl-3-oxo-1-oxa-4,9-diazaspiro[5.6]dodecan-9-yl)methyl)benzonitrile]	≥ 500 nM
CN1CC2(CCCN(Cc3ccccc3)CC2)OC2(CC2)C1=O (stereo not shown) [Example 71, 8-benzyl-13-methyl-4-oxa-8,13-diazadispiro[2.1.6.3]tetradecan-14-one]	≥ 500 nM
CCN1CC2(CN(CC(C)(C)C)C2)O[C@@H](C)C1=O [Example 74, (S)-8-ethyl-6-methyl-2-neopentyl-5-oxa-2,8-diazaspiro[3.5]nonan-7-one]	≥ 500 nM
CCN1CC2(CN(CC(C)(C)C)C2)O[C@H](C)C1=O [Example 75, (R)-8-ethyl-6-methyl-2-neopentyl-5-oxa-2,8-diazaspiro[3.5]nonan-7-one]	≥ 500 nM
c1ccc(CCN2CCCC3(C2)CN(Cc2ccccc2)CC2(CC2)O3)cc1 (stereo not shown) [Example 79, 12-benzyl-7-phenethyl-4-oxa-7,12-diazadispiro[2.1.5.3]tridecane]	< 100 nM
CC(C)CCN1CCCC2(C1)CN(Cc1ccccc1)CC1(CC1)O2 (stereo not shown) [Example 80, 12-benzyl-7-isopentyl-4-oxa-7,12-diazadispiro[2.1.5.3]tridecane]	< 100 nM
CC(C)CN1CCCC2(C1)CN(Cc1ccccc1)CC1(CC1)O2 (stereo not shown) [Example 81, 12-benzyl-7-isobutyl-4-oxa-7,12-diazadispiro[2.1.5.3]tridecane]	< 100 nM
CC(C)CCN1CCCC2(CC1)CN(Cc1ccccc1)CC1(CC1)O2 (stereo not shown) [Example 84, 13-benzyl-8-isopentyl-4-oxa-8,13-diazadispiro[2.1.6.3]tetradecane]	< 100 nM
CCN1CC(C)(C)OC2(CCCN(CCc3ccccc3)CC2)C1 (stereo not shown) [Example 87, 4-ethyl-2,2-dimethyl-9-phenethyl-1-oxa-4,9-diazaspiro[5.6]dodecane]	< 100 nM

Now from value to molecule:

Ki	SMILES
≥ 500 nM	CN1CC2(CCCN(Cc3ccc(F)cc3)CC2)OC2(CC2)C1=O (stereo not shown) [Example 72, 8-(4-fluorobenzyl)-13-methyl-4-oxa-8,13-diazadispiro[2.1.6.3]tetradecan-14-one]
≥ 500 nM	CN1CC2(CCCN(Cc3ccc(C#N)cc3)CC2)OC2(CC2)C1=O (stereo not shown) [Example 73, 4-((13-methyl-14-oxo-4-oxa-8,13-diazadispiro[2.1.6.3]tetradecan-8-yl)methyl)benzonitrile]
≥ 500 nM	CC(C)N1CC2(CN(CC(C)(C)C)C2)O[C@@H](C)C1=O [Example 76, (S)-8-isopropyl-6-methyl-2-neopentyl-5-oxa-2,8-diazaspiro[3.5]nonan-7-one]
≥ 500 nM	CC(C)N1CC2(CN(CC(C)(C)C)C2)O[C@H](C)C1=O [Example 77, (R)-8-isopropyl-6-methyl-2-neopentyl-5-oxa-2,8-diazaspiro[3.5]nonan-7-one]
< 100 nM	c1ccc(CN2CCCC3(C2)CN(Cc2ccccc2)CC2(CC2)O3)cc1 (stereo not shown) [Example 78, 7,12-dibenzyl-4-oxa-7,12-diazadispiro[2.1.5.3]tridecane]
< 100 nM	c1ccc(CN2CCCC3(CC2)CN(Cc2ccccc2)CC2(CC2)O3)cc1 (stereo not shown) [Example 82, 8,13-dibenzyl-4-oxa-8,13-diazadispiro[2.1.6.3]tetradecane]
< 100 nM	c1ccc(CCN2CCCC3(CC2)CN(Cc2ccccc2)CC2(CC2)O3)cc1 (stereo not shown) [Example 83, 13-benzyl-8-phenethyl-4-oxa-8,13-diazadispiro[2.1.6.3]tetradecane]
< 100 nM	CC(C)CN1CCCC2(CC1)CN(Cc1ccccc1)CC1(CC1)O2 (stereo not shown) [Example 85, 13-benzyl-8-isobutyl-4-oxa-8,13-diazadispiro[2.1.6.3]tetradecane]
< 100 nM	CCN1CC(C)(C)OC2(CCCN(Cc3ccccc3)CC2)C1 (stereo not shown) [Example 86, 9-benzyl-4-ethyl-2,2-dimethyl-1-oxa-4,9-diazaspiro[5.6]dodecane]
